PMC4491662, “Synthesis, Biological Evaluation and Molecular Modeling of Substituted Indeno[1,2-b]indoles as Inhibitors of Human Protein Kinase CK2” (Pharmaceuticals, 2015)
Read-outs that look alike come from different tables or passages of the source.

Key:
[1] = target: T1, human CK2 holoenzyme (Homo sapiens, UniProt P68400); assay: biochemical; settings: for inhibition at 10 µM: average percent inhibition at 10 µM
[2] = test system: MEF; assay: Cytotoxicity WST-1 assay on MEF; format: cell-based, mouse; settings: 96 h; for EC50: Mus musculus, read-out: EC50 in µM ± SD
Text: (§1) Four cell lines of various origins were used to evaluate the cytotoxicity of our target compounds 5–7. The selected cell lines were (i) NIH-3T3, a cell line originally established from the primary mouse embryonic fibroblast cells, (ii) MEF, primary mouse embryonic fibroblasts (used at their early passages) prepared as previously described, (iii) WI-38, a human diploid cell line derived from normal embryonic lung tissue, and (iv) HEK293T, a transformed variant of the human embryonic kidney cell line HEK293. After 96 h, cytotoxicity was evaluated using the WST-1 assay. […] Seventeen compounds were evaluated on the cell lines and then compared to TBB used as a standard. […]. All cells were grown in DMEM medium supplemented with 10% fetal calf serum, glutamine (2 mM), penicillin (100 U/mL), and streptomycin (50 μg/mL) at 37 °C under a humidified 5% CO2 atmosphere (Gibco). The assays were performed in sterile 96-wells microtiter plates (Falcon). Cells were plated at 500 (NIH-3T3), 750 (WI-38) or 1000 (MEF; HEK293T) cells/100 µL/well. Drug solutions (10 μL per well) of appropriate concentration (prepared by dilution in the culture medium from 2 mM stock acetonitrile solution) were added 24 h after cell seeding. For ellagic acid and emodin, DMSO was used to prepare the stock solution. After 96 h, the cytotoxicity is evaluated using the Cell Proliferation Reagent WST-1 following the procedure described by the manufacturer (Roche Applied Science). The drugs were assayed at 10, 5, 1, 0.2 and 0.04 µM in triplicate. The vehicle was used as control. The experiments were repeated three times.

[3] = target: T1, human CK2 holoenzyme; settings: read-out: IC50 ± SD, assay buffer with 100 µM ATP
[4] = test system: NIH-3T3; assay: Cytotoxicity WST-1 assay on NIH-3T3; format: cell-based, mouse; settings: for EC50: Mus musculus, NIH3T3, 96 h, read-out: EC50 in µM ± SD
Text: as §1

[5] = test system: WI-38; assay: Cytotoxicity WST-1 assay on WI-38; format: cell-based, human; settings: WI-38, 96 h; for EC50: Homo sapiens, read-out: EC50 in µM ± SD
Text: as §1

[6] = test system: HEK293T; assay: Cytotoxicity WST-1 assay on HEK293T; format: cell-based, human; settings: 96 h; for EC50: Homo sapiens, HEK-293T, read-out: EC50 in µM ± SD
Text: as §1

[7] = target: T1, human CK2 holoenzyme; assay: Mode of inhibition and Ki determination, CE based CK2 activity assay at varied ATP; format: biochemical; parameters: made in house; host or cells: Escherichia coli BL21(DE3), pT7-7 expression system; settings: for IC50: IC50 at varied ATP
Procedure: For this purpose, reaction rates at different inhibitor concentrations were plotted in a Lineweaver-Burk diagram against the varying ATP concentration, resulting in −1/Kmapp as given by the intercepts with the abscissa in both graphs. For determining the Ki values, Kmapp were plotted against the different inhibitor concentrations as shown for 7a in Figure 6.
For this purpose, enzymatic reactions and IC50 determinations were performed as described in Section 3.3.2., but varying compositions of the assay buffer with respect to the ATP concentration were used. […] For this purpose, reaction velocities at different inhibitor concentrations were plotted in a Lineweaver-Burk diagram against the varied ATP concentrations and the corresponding −1/Kmapp were obtained by the intercepts with the abscissa. Finally the Kmapp values as obtained were plotted against the different inhibitor concentrations. By this method, the Ki values with a negative sign were given by the intercepts of the linear slope with the abscissa.

[8] = Cytotoxicity WST-1 assay, statements over the four cell lines; format: cell-based; settings: mouse (NIH-3T3, MEF) and human (WI-38, HEK293T), WST-1, cell line not specified, read-out: EC50 (cytotoxic activity, over the cell lines)
Text: as §1

T1 sequence (P68400 whole entry): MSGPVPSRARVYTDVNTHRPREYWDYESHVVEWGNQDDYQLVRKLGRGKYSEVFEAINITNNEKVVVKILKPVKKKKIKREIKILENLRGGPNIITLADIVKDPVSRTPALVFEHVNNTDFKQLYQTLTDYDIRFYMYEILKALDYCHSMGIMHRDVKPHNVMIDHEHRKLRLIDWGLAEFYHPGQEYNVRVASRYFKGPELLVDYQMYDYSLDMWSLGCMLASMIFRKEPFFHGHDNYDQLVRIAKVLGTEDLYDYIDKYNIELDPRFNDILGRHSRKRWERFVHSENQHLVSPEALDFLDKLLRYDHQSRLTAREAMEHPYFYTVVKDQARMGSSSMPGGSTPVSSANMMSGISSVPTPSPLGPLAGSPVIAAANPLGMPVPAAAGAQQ
T1 sequence (P67870 whole entry partner): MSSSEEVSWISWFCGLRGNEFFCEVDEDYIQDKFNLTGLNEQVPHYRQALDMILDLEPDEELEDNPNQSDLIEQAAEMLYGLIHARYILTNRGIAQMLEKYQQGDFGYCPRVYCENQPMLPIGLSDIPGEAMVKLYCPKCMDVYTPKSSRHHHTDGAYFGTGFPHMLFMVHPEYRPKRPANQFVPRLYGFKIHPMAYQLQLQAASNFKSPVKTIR

Structure (SMILES) | inhibition at 10 µM [1] [%] | EC50 [2] [µM] | melting point [°C] | EC50 [4] [µM] | EC50 [5] [µM] | EC50 [6] [µM] | also measured
CC(C)c1cc(=O)c2c3c(=O)c4ccccc4c3n(C(C)C)c2c1=O [Compound 7b, 5,7-Diisopropyl-5H-indeno[1,2-b]indole-6,9,10-trione] | 60 | > 10 | 230.4 | > 10 | > 10 | > 10 | IC50 [3]: 4.76 ± 0.29 µM
CC(C)c1cc(O)c2c3c(n(C(C)C)c2c1)-c1ccccc1C3=O [Compound 6b, 9-Hydroxy-5,7-diisopropyl-5H-indeno[1,2-b]indol-10-one] |  | > 10 | 188.1 | > 10 | > 10 | > 10 | 
CC(C)n1c2c(=O)c(-c3ccco3)cc(=O)c2c2c(=O)c3ccccc3c21 [Compound 7e, 7-Furan-2-yl-5-isopropyl-5H-indeno[1,2-b]indole-6,9,10-trione] | 82 |  | 216.1 |  |  |  | IC50 [1]: 1.65 ± 0.14 µM
Cc1cc(=O)c2c3c(=O)c4ccccc4c3n(C(C)C)c2c1=O [Compound 7a, 5-Isopropyl-7-methyl-5H-indeno[1,2-b]indole-6,9,10-trione] | 87 |  | 235 |  |  |  | IC50 [1]: 0.43 ± 0.12 µM; EC50 in µM ± SD ([2]; WST-1): not soluble; Ki [7]: 0.144 ± 0.022 µM; IC50 ([7]; fifth of six ATP concentrations ranging from 6 to 600 µM): 3.32 µM; IC50 ([7]; fourth of six ATP concentrations ranging from 6 to 600 µM): 1.27 µM; IC50 ([7]; highest of six ATP concentrations, 600 µM): 5.16 µM; IC50 ([7]; lowest of six ATP concentrations, 6 µM): 0.13 µM; IC50 ([7]; second of six ATP concentrations ranging from 6 to 600 µM): 0.34 µM; IC50 ([7]; third of six ATP concentrations ranging from 6 to 600 µM): 0.43 µM; mode of CK2 inhibition ([7]; IC50 increases linearly with ATP concentration): ATP competitive; IC50 at 600 µM ATP compared to IC50 at 6 µM ATP ([7]; fold higher): 40 fold; EC50 in µM ± SD ([4]; NIH-3T3, 96 h, WST-1): not soluble; EC50 in µM ± SD ([5]; WST-1): not soluble; EC50 in µM ± SD ([6]; HEK293T, WST-1): not soluble
CC(C)n1c2c(c3c(O)cc(-c4ccccc4)cc31)C(=O)c1ccccc1-2 [Compound 6c, 9-Hydroxy-5-isopropyl-7-phenyl-5H-indeno[1,2-b]indol-10-one] |  | > 10 | 198 | > 10 | > 10 | > 10 | 
Cc1cc(O)c2c3c(n(C(C)C)c2c1)-c1ccccc1C3=O [Compound 6a, 9-Hydroxy-5-isopropyl-7-methyl-5H-indeno[1,2-b]indol-10-one] |  | > 10 |  | > 10 | > 10 | > 10 | 
CC(C)C1CC(=O)c2c3c(n(C(C)C)c2C1)-c1ccccc1C3=O (stereo not drawn) [Compound 5b, 5,7-Diisopropyl-5,6,7,8-tetrahydroindeno[1,2-b]indole-9,10-dione] |  | 4.4 ± 0.3 |  | > 10 | > 10 | > 10 | IC50 [1]: 0.61 ± 0.03 µM; EC50 at 96 h [8]: > 10 µM
CC(C)c1cc(=O)c2c(c1=O)c1c(=O)c3ccccc3c1n2C(C)C [Compound 7g, 5,8-Diisopropyl-5H-indeno[1,2-b]indole-6,9,10-trione] | 45 | > 10 | 226 | 1.5 ± 0.8 | 2.5 ± 0.4 | 0.4 ± 0.02 | EC50 at 96 h [8]: 0.4 to 8.8 µM
CC(C)n1c2c(c3c1-c1ccccc1C3=O)C(=O)CC(c1ccccc1)C2 (stereo not drawn) [Compound 5c, 5-Isopropyl-7-phenyl-5,6,7,8-tetrahydroindeno[1,2-b]indole-9,10-dione] | 7 | > 10 | 278 | > 10 | > 10 | > 10 | 
CC1CC(=O)c2c3c(n(C(C)C)c2C1)-c1ccccc1C3=O (stereo not drawn) [Compound 5a, 5-Isopropyl-7-methyl-5,6,7,8-tetrahydroindeno[1,2-b]indole-9,10-dione] |  | > 10 |  | > 10 | > 10 | > 10 | EC50 at 96 h [8]: > 10 µM
CC(C)n1c2c(c3c1-c1ccccc1C3=O)C(=O)CC(c1ccc(F)cc1)C2 (stereo not drawn) [Compound 5d, 7-(4-Fluorophenyl)-5-isopropyl-5,6,7,8-tetrahydroindeno[1,2-b]indole-9,10-dione] | 12 |  | 264 |  |  |  | 
CC(C)n1c2c(c3c1-c1ccccc1C3=O)C(=O)CC(c1ccco1)C2 (stereo not drawn) [Compound 5e, 7-Furan-2-yl-5-isopropyl-5,6,7,8-tetrahydroindeno[1,2-b]indole-9,10-dione] | 35 |  | 233.1 |  |  |  | 
CC(C)n1c2c(=O)c(-c3ccc(F)cc3)cc(=O)c2c2c(=O)c3ccccc3c21 [Compound 7d, 7-(4-Fluorophenyl)-5-isopropyl-5H-indeno[1,2-b]indole-6,9,10-trione] | 42 | 8.5 ± 0.4 | 258.1 | > 10 | > 10 | 4.9 ± 2.4 | EC50 at 96 h [8]: 0.4 to 8.8 µM
CC(C)c1ccc2c(c1O)c1c(n2C(C)C)-c2ccccc2C1=O [Compound 6g, 9-Hydroxy-5,8-diisopropyl-5H-indeno[1,2-b]indol-10-one] |  |  | 235 |  |  |  | 
CC(C)n1c2c(=O)c(-c3ccccc3)cc(=O)c2c2c(=O)c3ccccc3c21 [Compound 7c, 5-Isopropyl-7-phenyl-5H-indeno[1,2-b]indole-6,9,10-trione] | 41 | > 10 | 230.4 | > 10 | > 10 | 1.6 ± 0.2 | EC50 at 96 h [8]: 0.4 to 8.8 µM
Cc1cc(O)c2c(c1)C(=O)c1cc(O)cc(O)c1C2=O [emodin, reference compound] |  | > 10 |  | > 10 | > 10 | > 10 | 
O=c1oc2c(O)c(O)cc3c(=O)oc4c(O)c(O)cc1c4c23 [ellagic acid, reference compound] | 95 | > 10 |  | > 10 | > 10 | > 10 | IC50 [3]: 0.04 ± 0.007 µM
CC(C)n1c2c(c3c(O)cc(-c4ccco4)cc31)C(=O)c1ccccc1-2 [Compound 6e, 7-Furan-2-yl-9-hydroxy-5-isopropyl-5H-indeno[1,2-b]indol-10-one] |  | > 10 | 191 | > 10 | > 10 | > 10 | 
CC1CCc2c(c3c(n2C(C)C)-c2ccccc2C3=O)C1=O (stereo not drawn) [Compound 5f, 5-Isopropyl-8-methyl-5,6,7,8-tetrahydroindeno[1,2-b]indole-9,10-dione] |  | > 10 |  | > 10 | > 10 | > 10 | 
CC(C)C1CCc2c(c3c(n2C(C)C)-c2ccccc2C3=O)C1=O (stereo not drawn) [Compound 5g, 5,8-Diisopropyl-5,6,7,8-tetrahydroindeno[1,2-b]indole-9,10-dione] | 21 | > 10 | 215 | > 10 | > 10 | > 10 | 
CC(C)n1c2c(c3c(O)cc(-c4ccc(F)cc4)cc31)C(=O)c1ccccc1-2 [Compound 6d, 7-(4-Fluorophenyl)-9-hydroxy-5-isopropyl-5H-indeno[1,2-b]indol-10-one] |  | > 10 | 208.1 | > 10 | > 10 | > 10 | 
Brc1c(Br)c(Br)c2[nH]nnc2c1Br [TBB, reference compound] |  | > 10 |  | > 10 | > 10 | > 10 | 
